Results taken from patent US8637510B2, “Morpholinothiazoles as alpha 7 positive allosteric modulators” (Janssen Pharmaceutica NV, priority 2009, dated 2014).

Tests used:
human alpha 7-wt nAChR = biological target: T1, human alpha 7-wt nAChR (Homo sapiens, UniProt P36544); assay: Ca2+ flux imaging (FDSS) (Protocol B); assay type: cell-based; details: for Emax: efficacy of 100 μM choline defined as 100% in the absence of a PAM, read-out: a7-PAM-G_[33]_Eff_Curve_FI % Efficacy; for EC50: potentiation of 100 μM choline, compounds 0.01 μM to 30 μM, read-out: a7-PAM-G_[33]_pEC50 pEC50 (converted)
T1 construct: expressed in transfected cells
How it was run: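 PAM activity was measured as FDSS calcium fluorescence in α7-wt nAChR cells loaded with 2 μM Fluo-4AM, with compounds at 0.01–30 μM added alongside or 10 min ahead of sub-maximal 100 μM choline. Peak responses were normalised to choline-only efficacy, and EC50 was taken at half-maximal effect.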

T1 sequence (P36544 23-502): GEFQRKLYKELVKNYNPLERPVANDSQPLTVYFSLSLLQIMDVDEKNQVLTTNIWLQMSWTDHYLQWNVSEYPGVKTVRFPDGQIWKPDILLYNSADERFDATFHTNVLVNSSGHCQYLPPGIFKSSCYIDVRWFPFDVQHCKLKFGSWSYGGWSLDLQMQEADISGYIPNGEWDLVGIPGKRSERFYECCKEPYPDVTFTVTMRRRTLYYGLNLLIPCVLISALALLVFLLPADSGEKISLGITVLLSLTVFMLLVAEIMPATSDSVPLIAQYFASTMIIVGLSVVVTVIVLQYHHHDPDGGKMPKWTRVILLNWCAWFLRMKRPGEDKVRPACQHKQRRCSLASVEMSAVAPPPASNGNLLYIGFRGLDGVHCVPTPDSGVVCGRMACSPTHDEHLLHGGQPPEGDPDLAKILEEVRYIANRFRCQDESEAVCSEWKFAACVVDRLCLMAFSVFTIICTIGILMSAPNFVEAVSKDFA

Structure (SMILES)	melting point [°C]	Emax (human alpha 7-wt nAChR) [%]	EC50 (human alpha 7-wt nAChR) [µM]
Cc1cc(-c2sc(N3CCOCC3)nc2CNC(=O)CC2CC2)cc(C)n1 [Compound 64, N-[[5-(2,6-dimethyl-4-pyridinyl)-2-(4-morpholinyl)-4-thiazolyl]methyl]-cyclopropaneacetamide]	188	980	
Cc1cc(-c2sc(N3CCOCC3)nc2CNC(=O)C2CCC2)cc(C)n1 [Compound 65, N-[[5-(2,6-dimethyl-4-pyridinyl)-2-(4-morpholinyl)-4-thiazolyl]methyl]-cyclobutanecarboxamide]	188		3.24
Cc1cc(-c2sc(N3CCOCC3)nc2CNC(=O)c2ccc(F)cc2)cc(C)n1 [Compound 66, N-[[5-(2,6-dimethyl-4-pyridinyl)-2-(4-morpholinyl)-4-thiazolyl]methyl]-4-fluoro-benzamide]	210		1.2
CCCC(=O)NCc1nc(N2CCOCC2)sc1-c1cc(C)nc(C)c1 [Compound 67, N-[[5-(2,6-dimethyl-4-pyridinyl)-2-(4-morpholinyl)-4-thiazolyl]methyl]-butanamide]	178	959	5.37
Cc1cc(-c2sc(N3CCOCC3)nc2CNC(=O)c2ccc(F)cc2C)cc(C)n1 [Compound 80, N-[[5-(2,6-dimethyl-4-pyridinyl)-2-(4-morpholinyl)-4-thiazolyl]methyl]-4-fluoro-2-methyl-benzamide]	221	902	0.661
Cc1cc(-c2sc(N3C[C@@H](C)O[C@@H](C)C3)nc2CNC(=O)c2cccc(F)c2)ccn1 [Compound 93, N-[[2-[(2R,6S)-2,6-dimethyl-4-morpholinyl]-5-(2-methyl-4-pyridinyl)-4-thiazolyl]methyl]-3-fluoro-benzamide]	153	477	0.479
Cc1cc(-c2sc(N3C[C@@H](C)O[C@@H](C)C3)nc2CNC(=O)c2ccc(F)cc2)ccn1 [Compound 94, N-[[2-[(2R,6S)-2,6-dimethyl-4-morpholinyl]-5-(2-methyl-4-pyridinyl)-4-thiazolyl]methyl]-4-fluoro-benzamide]	225	420	0.479

Second part, the molecule after the results:

melting point [°C]	Emax (human alpha 7-wt nAChR) [%]	EC50 (human alpha 7-wt nAChR) [µM]	Structure (SMILES)
173	420	0.676	Cc1cc(-c2sc(N3C[C@@H](C)O[C@@H](C)C3)nc2CNC(=O)C2CCCC2)c(C)cn1 [Compound 96, N-[[2-[(2R,6S)-2,6-dimethyl-4-morpholinyl]-5-(2,5-dimethyl-4-pyridinyl)-4-thiazolyl]methyl]-cyclopentanecarboxamide]
138	424	3.02	Cc1cc(-c2sc(N3C[C@@H](C)O[C@@H](C)C3)nc2CNC(=O)CC2CC2)c(C)cn1 [Compound 97, N-[[2-[(2R,6S)-2,6-dimethyl-4-morpholinyl]-5-(2,5-dimethyl-4-pyridinyl)-4-thiazolyl]methyl]-cyclopropaneacetamide]
155		4.07	Cc1cc(-c2sc(N3C[C@@H](C)O[C@@H](C)C3)nc2CNC(=O)c2cc(C)on2)c(C)cn1 [Compound 98, N-[[2-[(2R,6S)-2,6-dimethyl-4-morpholinyl]-5-(2,5-dimethyl-4-pyridinyl)-4-thiazolyl]methyl]-5-methyl-3-isoxazolecarboxamide]
178		7.41	C[C@@H]1CN(c2nc(CNC(=O)CC3CC3)c(-c3ccncc3)s2)C[C@H](C)O1 [Compound 99, N-[[2-[(2R,6S)-2,6-dimethyl-4-morpholinyl]-5-(4-pyridinyl)-4-thiazolyl]methyl]-cyclopropaneacetamide]
182		1.82	Cc1cc(C(=O)NCc2nc(N3C[C@@H](C)O[C@@H](C)C3)sc2-c2ccncc2)no1 [Compound 100, N-[[2-[(2R,6S)-2,6-dimethyl-4-morpholinyl]-5-(4-pyridinyl)-4-thiazolyl]methyl]-5-methyl-3-isoxazolecarboxamide]
